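Values below derive from 48-hour exposures of cells grown in 96-well plates, with endpoints linearly interpolated between the two concentrations bracketing the appropriate inhibition level. GI50 marks 50% less growth.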 The source made the active and inactive calls. Rule as the data show it: active = GI50 up to about 1.1 µM and inactive = higher.
How the values were obtained:
Assay in all cases: NCI-60 cell line screen, 48 h
BT-549 = test system: BT-549
TK-10 = test system: TK-10
ACHN = test system: ACHN
HCC 2998 = test system: HCC 2998
NCI/ADR-RES = test system: NCI/ADR-RES
OVCAR-3 = test system: OVCAR-3
SK-MEL-5 = test system: SK-MEL-5
SK-MEL-2 = test system: SK-MEL-2
IGROV-1 = test system: IGROV-1
NCI-H522 = test system: NCI-H522
UACC-257 = test system: UACC-257
HCT-15 = test system: HCT-15
EKVX = test system: EKVX
SK-OV-3 = test system: SK-OV-3
NCI-H23 = test system: NCI-H23
OVCAR-4 = test system: OVCAR-4
COLO 205 = test system: COLO 205
U-251 = test system: U-251
SNB-19 = test system: SNB-19
RXF 393 = test system: RXF 393
M14 = test system: M14
MDA-MB-231 = test system: MDA-MB-231
OVCAR-5 = test system: OVCAR-5
HT-29 = test system: HT-29
HL-60 = test system: HL-60
SK-MEL-28 = test system: SK-MEL-28
SF-268 = test system: SF-268
Malme-3M = test system: Malme-3M
KM12 = test system: KM12
SF-295 = test system: SF-295
NCI-H226 = test system: NCI-H226
SF-539 = test system: SF-539
HOP-62 = test system: HOP-62
HCT-116 = test system: HCT-116
PC-3 = test system: PC-3
Hs-578T = test system: Hs-578T
MDA-N = test system: MDA-N
MDA-MB-435 = test system: MDA-MB-435
SW-620 = test system: SW-620
MOLT-4 = test system: MOLT-4
SR = test system: SR
LOX IMVI = test system: LOX IMVI
OVCAR-8 = test system: OVCAR-8
CCRF-CEM = test system: CCRF-CEM
SN12C = test system: SN12C
A549 = test system: A549
SNB-75 = test system: SNB-75
T47D = test system: T47D
MCF7 = test system: MCF7
UACC-62 = test system: UACC-62
786-0 = test system: 786-0
K562 = test system: K562
HOP-92 = test system: HOP-92
RPMI-8226 = test system: RPMI-8226
UO-31 = test system: UO-31
A498 = test system: A498
CAKI-1 = test system: CAKI-1
NCI-H460 = test system: NCI-H460
DU-145 = test system: DU-145

What does the source list for `Clc1cc2nc(C3CCCO3)[nH]c2cc1Cl` (centres undefined)?
GI50 (BT-549): 26.2 µM (inactive); GI50 (TK-10): > 100 µM (inactive); GI50 (ACHN): > 100 µM (inactive); GI50 (HCC 2998): 76.4 µM (inactive); GI50 (NCI/ADR-RES): 43.5 µM (inactive); GI50 (OVCAR-3): 32.5 µM (inactive); GI50 (SK-MEL-5): 35.9 µM (inactive); GI50 (SK-MEL-2): > 100 µM (inactive); GI50 (IGROV-1): 61.9 µM (inactive); GI50 (NCI-H522): 20.4 µM (inactive); GI50 (UACC-257): > 100 µM (inactive); GI50 (HCT-15): 31.6 µM; GI50 (EKVX): 87.5 µM (inactive); GI50 (SK-OV-3): 69.2 µM (inactive); GI50 (NCI-H23): 34.4 µM (inactive); GI50 (OVCAR-4): 46.8 µM (inactive); GI50 (COLO 205): 37.1 µM (inactive); GI50 (U-251): > 100 µM (inactive); GI50 (SNB-19): > 100 µM (inactive); GI50 (RXF 393): 66.5 µM (inactive); GI50 (M14): 72.9 µM (inactive); GI50 (MDA-MB-231): > 100 µM (inactive); GI50 (OVCAR-5): > 100 µM (inactive); GI50 (HT-29): 33.7 µM (inactive); GI50 (HL-60): 37.7 µM (inactive); GI50 (SK-MEL-28): 78 µM (inactive); GI50 (SF-268): 67 µM (inactive); GI50 (Malme-3M): > 100 µM (inactive); GI50 (KM12): 32.7 µM (inactive); GI50 (SF-295): 57.1 µM (inactive); GI50 (NCI-H226): > 100 µM (inactive); GI50 (SF-539): > 100 µM (inactive); GI50 (HOP-62): > 100 µM (inactive); GI50 (HCT-116): 39.2 µM (inactive); GI50 (PC-3): 42.7 µM (inactive); GI50 (Hs-578T): 40.9 µM (inactive); GI50 (MDA-N): 20.1 µM (inactive); GI50 (MDA-MB-435): 28.2 µM (inactive); GI50 (SW-620): 45.8 µM (inactive); GI50 (MOLT-4): 52 µM (inactive); GI50 (SR): 37.6 µM (inactive); GI50 (LOX IMVI): 35.4 µM (inactive); GI50 (OVCAR-8): 57.9 µM (inactive); GI50 (CCRF-CEM): 68.4 µM (inactive); GI50 (SN12C): > 100 µM (inactive); GI50 (A549): 54.6 µM (inactive); GI50 (SNB-75): 30.1 µM (inactive); GI50 (T47D): 46.2 µM (inactive); GI50 (MCF7): 29.2 µM (inactive); GI50 (UACC-62): 45.8 µM (inactive); GI50 (786-0): > 100 µM (inactive); GI50 (K562): 38.5 µM (inactive); GI50 (HOP-92): 85.3 µM (inactive); GI50 (RPMI-8226): 72.8 µM (inactive); GI50 (UO-31): 16.9 µM (inactive)

Which GI50 (BT-549) does the source give for `O=C(O)c1ccccc1SCc1cccc2c(=O)c3ccc(Cl)cc3oc12` here?
The GI50 was 48.8 µM (inactive).

What about the GI50 (TK-10) of the same molecule?
Its GI50 is 29.8 µM (inactive).

What about the GI50 (ACHN) of the same molecule?
Its GI50 is 32.4 µM (inactive).

And the GI50 (HCC 2998)?
The GI50 was > 50 µM (inactive).

What about the GI50 (NCI/ADR-RES) of the same molecule?
The GI50 was > 50 µM (inactive).

And the GI50 (OVCAR-3)?
Its GI50 is > 50 µM (inactive).

What about the GI50 (SK-MEL-5) of the same molecule?
The GI50 was > 50 µM (inactive).

And the GI50 (SK-MEL-2)?
The GI50 was 46.9 µM (inactive).

And the GI50 (IGROV-1)?
Its GI50 is 49.5 µM (inactive).

And the GI50 (NCI-H522)?
The GI50 was 29.2 µM (inactive).

What about the GI50 (UACC-257) of the same molecule?
Its GI50 is > 50 µM (inactive).

What about the GI50 (HCT-15) of the same molecule?
The GI50 was over 50 µM.

What about the GI50 (EKVX) of the same molecule?
Its GI50 is > 50 µM (inactive).

And the GI50 (A498)?
Its GI50 is > 50 µM (inactive).

What about the GI50 (CAKI-1) of the same molecule?
The GI50 was > 50 µM (inactive).

And the GI50 (SK-OV-3)?
Its GI50 is > 50 µM (inactive).

What about the GI50 (NCI-H23) of the same molecule?
The GI50 was 35.3 µM (inactive).

And the GI50 (OVCAR-4)?
Its GI50 is 41.5 µM (inactive).

And the GI50 (COLO 205)?
Its GI50 is > 50 µM (inactive).

What about the GI50 (U-251) of the same molecule?
Its GI50 is 17.5 µM (inactive).

And the GI50 (M14)?
The GI50 was > 50 µM (inactive).

What about the GI50 (MDA-MB-231) of the same molecule?
Its GI50 is > 50 µM (inactive).

And the GI50 (OVCAR-5)?
Its GI50 is > 50 µM (inactive).

And the GI50 (HT-29)?
Its GI50 is > 50 µM (inactive).

And the GI50 (HL-60)?
The GI50 was 11 µM (inactive).

And the GI50 (SK-MEL-28)?
Its GI50 is > 50 µM (inactive).

And the GI50 (Malme-3M)?
Its GI50 is 10.7 µM (inactive).

And the GI50 (KM12)?
Its GI50 is > 50 µM (inactive).

What about the GI50 (SF-295) of the same molecule?
Its GI50 is 20.2 µM (inactive).

What about the GI50 (NCI-H226) of the same molecule?
The GI50 was > 50 µM (inactive).

What about the GI50 (SF-539) of the same molecule?
The GI50 was 19.5 µM (inactive).

What about the GI50 (HOP-62) of the same molecule?
The GI50 was 12.9 µM (inactive).

And the GI50 (HCT-116)?
Its GI50 is 36.1 µM (inactive).

What about the GI50 (PC-3) of the same molecule?
The GI50 was 26.8 µM (inactive).

What about the GI50 (MDA-N) of the same molecule?
Its GI50 is > 50 µM (inactive).

What about the GI50 (MDA-MB-435) of the same molecule?
The GI50 was > 50 µM (inactive).

And the GI50 (SW-620)?
Its GI50 is > 50 µM (inactive).

And the GI50 (MOLT-4)?
The GI50 was > 50 µM (inactive).

What about the GI50 (SR) of the same molecule?
Its GI50 is 39 µM (inactive).

What about the GI50 (LOX IMVI) of the same molecule?
Its GI50 is > 50 µM (inactive).

And the GI50 (OVCAR-8)?
The GI50 was > 50 µM (inactive).

What about the GI50 (CCRF-CEM) of the same molecule?
Its GI50 is > 50 µM (inactive).

What about the GI50 (SN12C) of the same molecule?
Its GI50 is > 50 µM (inactive).

What about the GI50 (A549) of the same molecule?
The GI50 was > 50 µM (inactive).

And the GI50 (SNB-75)?
The GI50 was 15.6 µM (inactive).

And the GI50 (T47D)?
Its GI50 is > 50 µM (inactive).

What about the GI50 (MCF7) of the same molecule?
Its GI50 is > 50 µM (inactive).

What about the GI50 (UACC-62) of the same molecule?
Its GI50 is 21.4 µM (inactive).

What about the GI50 (786-0) of the same molecule?
Its GI50 is 25.3 µM (inactive).

What about the GI50 (K562) of the same molecule?
Its GI50 is 27.7 µM (inactive).

What about the GI50 (RPMI-8226) of the same molecule?
Its GI50 is > 50 µM (inactive).

And the GI50 (UO-31)?
Its GI50 is > 50 µM (inactive).

Which results are given for `COc1cc2c(cc1OC)C1=Cc3cc(OC)c(OC)cc3C(C)N1C=C2` (centres undefined)?
GI50 (BT-549): 34.6 µM (inactive); GI50 (TK-10): 83.4 µM (inactive); GI50 (ACHN): > 100 µM (inactive); GI50 (HCC 2998): > 100 µM (inactive); GI50 (NCI/ADR-RES): > 100 µM (inactive); GI50 (OVCAR-3): 32.1 µM (inactive); GI50 (SK-MEL-5): 38.4 µM (inactive); GI50 (IGROV-1): > 100 µM (inactive); GI50 (UACC-257): 33.7 µM (inactive); GI50 (HCT-15): 69.7 µM; GI50 (EKVX): > 100 µM (inactive); GI50 (A498): 82.6 µM (inactive); GI50 (SK-OV-3): > 100 µM (inactive); GI50 (NCI-H23): > 100 µM (inactive); GI50 (COLO 205): 22 µM (inactive); GI50 (U-251): 37.2 µM (inactive); GI50 (SNB-19): 59.4 µM (inactive); GI50 (RXF 393): 57.4 µM (inactive); GI50 (M14): > 100 µM (inactive); GI50 (OVCAR-5): > 100 µM (inactive); GI50 (HT-29): 74.3 µM (inactive); GI50 (NCI-H460): 47.1 µM (inactive); GI50 (HL-60): > 100 µM (inactive); GI50 (SK-MEL-28): 63.2 µM (inactive); GI50 (SF-268): 21.5 µM (inactive); GI50 (Malme-3M): > 100 µM (inactive); GI50 (KM12): 74.8 µM (inactive); GI50 (SF-295): > 100 µM (inactive); GI50 (NCI-H226): > 100 µM (inactive); GI50 (SF-539): > 100 µM (inactive); GI50 (HOP-62): 44.2 µM (inactive); GI50 (HCT-116): 50.2 µM (inactive); GI50 (PC-3): 12.3 µM (inactive); GI50 (Hs-578T): 74 µM (inactive); GI50 (MDA-N): 51.5 µM (inactive); GI50 (DU-145): > 100 µM (inactive); GI50 (MDA-MB-435): 41.8 µM (inactive); GI50 (SW-620): 84.5 µM (inactive); GI50 (MOLT-4): 35.2 µM (inactive); GI50 (OVCAR-8): 52 µM (inactive); GI50 (CCRF-CEM): 27.3 µM (inactive); GI50 (SN12C): 87.5 µM (inactive); GI50 (A549): > 100 µM (inactive); GI50 (SNB-75): 40 µM (inactive); GI50 (T47D): 29.3 µM (inactive); GI50 (MCF7): 21 µM (inactive); GI50 (UACC-62): 75.7 µM (inactive); GI50 (786-0): > 100 µM (inactive); GI50 (K562): 25.9 µM (inactive); GI50 (HOP-92): > 100 µM (inactive); GI50 (RPMI-8226): 40 µM (inactive); GI50 (UO-31): 55.1 µM (inactive)
